Values of other authors in patent US20110274652A1, “Methods for Treating Hepatitis C Virus Infection” (VERTEX PHARMACEUTICALS INCORPORATED, priority 2008, published 2011).

Tested on: Hepatitis C virus
Details: interferon alfa monotherapy, chronic hepatitis C

Substance: interferon alfa
- cases with long term remission: ~25%
